Measurements from ChEMBL document CHEMBL1201862, “PubChem BioAssay data set” (2004).
Calls of active or inactive are those of the source.

How the values were obtained:
Beta Lactamase = Beta Lactamase (Pseudomonas aeruginosa, UniProt Q932Y6); test: BLA reporter interference, concentration series – BLA reporter cells, FRET fluorescence, artefact control for TLR9-MyD88 binding inhibitor project, dose response (AID 588341); assay type: cell-based;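 further: cell based assay in CHO-K1 cells stably expressing beta-lactamase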
Sequence of Beta Lactamase (Q932Y6 whole entry, the tested form may be a part): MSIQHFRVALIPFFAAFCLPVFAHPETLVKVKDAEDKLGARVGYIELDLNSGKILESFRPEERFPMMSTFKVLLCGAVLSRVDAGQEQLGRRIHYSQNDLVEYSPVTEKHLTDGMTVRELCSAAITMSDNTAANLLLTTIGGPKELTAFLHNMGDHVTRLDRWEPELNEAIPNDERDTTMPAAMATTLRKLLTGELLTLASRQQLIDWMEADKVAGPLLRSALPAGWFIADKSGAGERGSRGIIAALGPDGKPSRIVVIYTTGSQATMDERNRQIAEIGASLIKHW

CHO = CHO cell viability loss, potency – luminescence, cytotoxicity control for TLR9-MyD88 binding inhibitor project, dose response (AID 588339); assay type: functional, cell-based, hamster; conditions: Cricetulus griseus;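 further: CHO cells stably coexpressing TLR9 and MyD88 fusions from primary screen; compound exposure lasted 48 hours before viability readout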
[1] = reduction of Shn3 3'UTR-driven luciferase in osteoblasts – cell-based, Clone20 osteoblasts, firefly luciferase, cherry-picked, dose response (AID 624132); assay type: functional;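 further: firefly luciferase luminescence from reporter carrying the Shn3 3'UTR in osteoblasts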
[2] = HEK-293T viability loss after treatment – luminescence, T-cell screen hits, cytotoxicity control for TCR NF-kB inhibitor project, dose response (AID 489026); assay type: functional, cell-based;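 further: cells exposed to compound about 14 hours before the viability readout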
[3] = target: T1, Serine/threonine-protein phosphatase (Homo sapiens, UniProt Q9BPW0); test: inhibition of protein phosphatase 5 activity – biochemical, fluorescence, dose response (AID 2395)
T1 sequence (Q9BPW0 whole entry): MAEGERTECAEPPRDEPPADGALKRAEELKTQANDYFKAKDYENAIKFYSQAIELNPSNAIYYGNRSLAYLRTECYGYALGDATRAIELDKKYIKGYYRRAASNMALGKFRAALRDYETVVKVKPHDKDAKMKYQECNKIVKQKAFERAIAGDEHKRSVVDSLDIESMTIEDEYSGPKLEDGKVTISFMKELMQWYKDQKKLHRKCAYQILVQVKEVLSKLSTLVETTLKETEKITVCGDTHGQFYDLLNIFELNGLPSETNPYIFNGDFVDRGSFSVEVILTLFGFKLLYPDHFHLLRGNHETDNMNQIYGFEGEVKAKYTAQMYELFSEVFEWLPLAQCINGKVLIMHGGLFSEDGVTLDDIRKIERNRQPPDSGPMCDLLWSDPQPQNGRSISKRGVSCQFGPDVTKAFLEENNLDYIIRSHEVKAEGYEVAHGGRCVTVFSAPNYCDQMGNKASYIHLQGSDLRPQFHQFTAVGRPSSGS

[4] = target: Tyrosyl-DNA phosphodiesterase 2 (Homo sapiens, UniProt O95551); test: potency against TDP2 phosphodiesterase activity – biochemical, epi absorbance, IC50, dose response (AID 743297)
Sequence of Tyrosyl-DNA phosphodiesterase 2 (O95551 whole entry): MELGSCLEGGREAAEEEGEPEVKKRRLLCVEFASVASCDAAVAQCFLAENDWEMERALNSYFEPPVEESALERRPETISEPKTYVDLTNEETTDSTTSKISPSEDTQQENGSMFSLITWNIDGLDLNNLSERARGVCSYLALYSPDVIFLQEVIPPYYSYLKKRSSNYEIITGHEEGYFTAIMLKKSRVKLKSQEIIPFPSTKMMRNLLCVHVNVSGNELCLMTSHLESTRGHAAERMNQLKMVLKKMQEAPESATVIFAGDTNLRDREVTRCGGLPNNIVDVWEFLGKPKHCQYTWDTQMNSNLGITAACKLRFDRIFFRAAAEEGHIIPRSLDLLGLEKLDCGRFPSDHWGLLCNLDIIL

[5] = target: T2, Short transient receptor potential channel 4 (Mus musculus, UniProt Q9QUQ5); test: block of DAMGO-driven TRPC4 calcium entry – cell-based, HEK293 TRPC4/mu-opioid, Fluo-4 calcium, dose response (AID 434942); assay type: functional;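 further: potency of inhibitors blocking the TRPC4 calcium response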
T2 sequence (Q9QUQ5 whole entry): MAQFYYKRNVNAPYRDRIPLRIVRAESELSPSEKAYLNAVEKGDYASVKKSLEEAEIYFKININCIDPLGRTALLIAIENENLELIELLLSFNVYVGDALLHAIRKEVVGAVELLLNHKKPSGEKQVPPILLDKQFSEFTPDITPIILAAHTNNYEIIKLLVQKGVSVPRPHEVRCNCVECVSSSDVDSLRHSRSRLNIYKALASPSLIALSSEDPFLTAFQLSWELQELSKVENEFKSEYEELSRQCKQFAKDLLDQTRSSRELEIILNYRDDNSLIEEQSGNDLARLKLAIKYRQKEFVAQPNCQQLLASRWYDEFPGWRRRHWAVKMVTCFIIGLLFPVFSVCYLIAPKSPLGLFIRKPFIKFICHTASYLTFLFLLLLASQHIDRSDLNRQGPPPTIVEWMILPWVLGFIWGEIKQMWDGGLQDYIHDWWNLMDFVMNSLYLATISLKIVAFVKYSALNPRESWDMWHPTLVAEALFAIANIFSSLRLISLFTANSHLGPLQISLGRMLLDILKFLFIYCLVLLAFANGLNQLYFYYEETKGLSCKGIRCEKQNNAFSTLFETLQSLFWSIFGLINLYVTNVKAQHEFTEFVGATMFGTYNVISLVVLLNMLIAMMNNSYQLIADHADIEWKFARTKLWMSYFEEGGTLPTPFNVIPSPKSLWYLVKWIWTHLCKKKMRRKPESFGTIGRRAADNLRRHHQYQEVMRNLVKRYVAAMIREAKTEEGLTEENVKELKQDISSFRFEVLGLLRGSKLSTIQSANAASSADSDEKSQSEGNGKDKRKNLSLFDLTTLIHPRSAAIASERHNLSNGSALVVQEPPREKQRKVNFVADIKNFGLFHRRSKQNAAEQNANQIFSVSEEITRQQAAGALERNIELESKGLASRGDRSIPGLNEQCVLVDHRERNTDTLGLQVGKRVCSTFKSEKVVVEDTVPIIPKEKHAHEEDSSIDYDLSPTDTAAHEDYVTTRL

[6] = target: T3, Zinc finger protein mex-5 (Caenorhabditis elegans, UniProt Q9XUB2); test: potency of MEX-5 RNA-binding blockers – biochemical, C. elegans, fluorescence polarization, dose response (AID 1960)
T3 sequence (Q9XUB2 whole entry): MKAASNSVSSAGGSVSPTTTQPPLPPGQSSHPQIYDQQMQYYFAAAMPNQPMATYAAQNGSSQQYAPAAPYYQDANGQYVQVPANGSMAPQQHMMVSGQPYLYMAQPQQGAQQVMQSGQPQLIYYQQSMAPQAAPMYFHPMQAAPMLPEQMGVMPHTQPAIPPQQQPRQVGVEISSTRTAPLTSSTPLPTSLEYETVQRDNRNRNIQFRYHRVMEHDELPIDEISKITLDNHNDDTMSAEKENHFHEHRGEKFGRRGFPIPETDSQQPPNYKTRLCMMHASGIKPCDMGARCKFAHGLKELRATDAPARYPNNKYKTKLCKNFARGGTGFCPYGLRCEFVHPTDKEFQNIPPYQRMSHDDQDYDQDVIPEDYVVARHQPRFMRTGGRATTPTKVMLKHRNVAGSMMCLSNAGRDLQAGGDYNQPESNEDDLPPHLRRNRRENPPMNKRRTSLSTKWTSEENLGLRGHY

[7] = HIV-1 AD8 envelope cell-cell fusion blockers – cherry-pick, dose response (AID 652062); assay type: functional, cell-based;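 further: luciferase signal from cell-cell fusion driven by HIV-1 clade B AD8 Env; potency is for inhibitors of fusion seen as a drop in luminescence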
[8] = viability of uninfected HEp-2 cells – cell-based, HTS, cytotoxicity control for RSV inhibitor project, dose response (AID 2410); assay type: functional; conditions: human respiratory syncytial virus
[9] = target: Peroxisome proliferator-activated receptor gamma/Nuclear receptor coactivator 1 (Homo sapiens, UniProt P37231); assay type: functional;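 further: agonist potency as compounds enhance coactivator SRC-1 recruitment to PPARgamma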
Sequence of Peroxisome proliferator-activated receptor gamma/Nuclear receptor coactivator 1 (P37231 whole entry): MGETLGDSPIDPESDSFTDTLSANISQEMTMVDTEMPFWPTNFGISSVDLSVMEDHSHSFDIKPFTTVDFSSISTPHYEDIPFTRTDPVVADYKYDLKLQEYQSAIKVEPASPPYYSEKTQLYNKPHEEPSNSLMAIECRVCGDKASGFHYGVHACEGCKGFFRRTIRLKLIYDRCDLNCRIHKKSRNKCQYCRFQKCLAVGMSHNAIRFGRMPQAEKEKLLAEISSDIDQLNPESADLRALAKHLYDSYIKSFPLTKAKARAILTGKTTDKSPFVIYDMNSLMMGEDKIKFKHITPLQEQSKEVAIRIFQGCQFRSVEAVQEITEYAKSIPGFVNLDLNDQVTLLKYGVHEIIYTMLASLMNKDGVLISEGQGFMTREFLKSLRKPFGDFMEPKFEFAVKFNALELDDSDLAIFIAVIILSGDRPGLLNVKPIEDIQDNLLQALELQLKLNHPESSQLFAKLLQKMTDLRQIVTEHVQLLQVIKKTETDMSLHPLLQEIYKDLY
Sequence of Peroxisome proliferator-activated receptor gamma/Nuclear receptor coactivator 1 (Q15788 whole entry, further chain): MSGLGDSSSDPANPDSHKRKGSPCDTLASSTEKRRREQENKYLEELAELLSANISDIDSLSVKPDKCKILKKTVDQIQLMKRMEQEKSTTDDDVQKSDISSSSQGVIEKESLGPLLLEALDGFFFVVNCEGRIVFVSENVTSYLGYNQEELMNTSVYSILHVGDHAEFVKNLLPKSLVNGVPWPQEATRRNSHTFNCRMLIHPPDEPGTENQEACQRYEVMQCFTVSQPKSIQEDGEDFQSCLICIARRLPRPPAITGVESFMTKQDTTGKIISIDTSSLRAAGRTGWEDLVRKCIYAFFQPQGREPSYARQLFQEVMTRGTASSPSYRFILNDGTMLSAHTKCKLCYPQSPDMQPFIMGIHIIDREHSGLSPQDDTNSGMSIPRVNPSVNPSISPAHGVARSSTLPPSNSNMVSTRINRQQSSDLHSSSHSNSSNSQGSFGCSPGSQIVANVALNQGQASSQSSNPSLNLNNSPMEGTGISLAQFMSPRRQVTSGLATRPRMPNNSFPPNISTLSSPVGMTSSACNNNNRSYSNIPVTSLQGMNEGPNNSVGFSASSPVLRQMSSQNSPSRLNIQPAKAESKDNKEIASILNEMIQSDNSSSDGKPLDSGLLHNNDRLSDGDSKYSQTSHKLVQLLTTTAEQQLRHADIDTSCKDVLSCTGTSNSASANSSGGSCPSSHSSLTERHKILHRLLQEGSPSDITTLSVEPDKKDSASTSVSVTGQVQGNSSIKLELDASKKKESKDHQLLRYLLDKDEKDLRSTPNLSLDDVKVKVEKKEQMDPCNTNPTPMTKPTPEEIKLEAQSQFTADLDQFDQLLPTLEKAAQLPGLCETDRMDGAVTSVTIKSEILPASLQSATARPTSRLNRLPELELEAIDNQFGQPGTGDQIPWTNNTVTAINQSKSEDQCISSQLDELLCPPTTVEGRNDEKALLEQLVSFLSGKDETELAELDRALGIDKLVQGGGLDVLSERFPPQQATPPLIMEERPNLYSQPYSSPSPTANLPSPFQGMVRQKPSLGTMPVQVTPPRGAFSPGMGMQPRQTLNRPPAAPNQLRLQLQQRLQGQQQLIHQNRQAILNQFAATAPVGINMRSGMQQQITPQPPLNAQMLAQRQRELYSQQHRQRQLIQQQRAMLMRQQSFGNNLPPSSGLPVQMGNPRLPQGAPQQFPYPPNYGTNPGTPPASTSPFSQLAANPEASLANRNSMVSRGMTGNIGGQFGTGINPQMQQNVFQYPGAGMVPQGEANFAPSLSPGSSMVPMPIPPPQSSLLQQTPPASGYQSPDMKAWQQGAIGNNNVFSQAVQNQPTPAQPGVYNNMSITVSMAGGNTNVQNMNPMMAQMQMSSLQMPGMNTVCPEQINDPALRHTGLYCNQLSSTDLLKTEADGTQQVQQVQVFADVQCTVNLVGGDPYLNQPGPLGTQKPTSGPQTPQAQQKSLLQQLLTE

O=C(Nc1ccccc1Cl)/C(Cl)=C(\Cl)[S+]([O-])c1ccccc1 (configuration not stated)
IC50 (Beta Lactamase): > 5.53 µM (active)
IC50 (CHO): 1.18 µM (active)
AC50 [1]: 0.438 µM (active)
IC50 [2]: 61.9 µM (inactive)

O=C(NC1(O)C(=O)c2ccccc2C1=O)c1ccccc1
IC50 [3]: > 0.828 µM (active)
IC50 [4]: 3.27 µM (active)

Cc1ccc(C)c(S(=O)(=O)/N=C2\C=C(NS(=O)(=O)c3ccccc3)C(=O)c3ccccc32)c1
EC50 [5]: 6.68 µM (active)

CCCCCCCCCCCCCCCCn1cc[n+](C)c1
EC50 [6]: > 300 µM (inconclusive)
EC50 (cells): 0.44 µM (active)
AC50 [7]: 5.26 µM (active)

Cc1cc(C)nc(/N=c2/ssnc2Cl)c1
CC50 [8]: 17.4 µM (active)
EC50 [9]: > 79.4 µM (not active)
